Measured values from US20200064357A1, “METHODS FOR DETERMINING AND MONITORING GASTROINTESTINAL INFLAMMATION” (Protagonist Therapeutics, Inc., priority 2016, published 2020).

Tested on: Sprague-Dawley rats
Assay: Biomarkers in colon of TNBS-induced acute colitis rats (Example E1)
Type: in vivo, rat
Settings: protein by ELISA, vs vehicle treated controls, Peptide 993 65 mg/kg/day; for IL-22 level in colon / MPO level in colon: Peptide 980 37 mg/kg/day
Excerpt: The effect of treatment with peptide inhibitors of IL23R on inflammatory markers associated with IL23 signaling was examined in a rat model of acute colitis. Acute colitis was induced in Sprague-Dawley rats by a single intra-rectal instillation of 2,4,6-Trinitrobenzenesulfonic acid (TNBS) followed by efficacy analysis at day seven. Pharmacodynamic (PD) biomarkers were examined using enzyme-linked immunosorbent assay (ELISA), quantitative reverse transcription polymerase chain reaction, or immunohistochemistry analysis of colon, feces, or serum samples obtained from colitic rats treated with Peptide 993, Peptide 1185, or Peptide 980.
Acute colitis was induced by providing 7-week-old female Sprague-Dawley rats with various dosages of 64 mg/kg or 48 mg/kg of TNBS in 50% ethanol (TNBS/ethanol) administered intrarectally at Day 0. Peptide inhibitors were administered orally two or three times a day at various dosages and were provided in drinking water at various dosages, for 8 days starting approximately 24 hours (Day −1) prior TNBS inoculation.
Levels of a number of inflammatory biomarkers were examined in the colons. The distal colon tissue samples, designated for protein expression analysis, were flash frozen after collection. For protein extraction, the samples were thawed, weighed and homogenized in the extraction buffer (PBS pH 7.2 supplemented with Protease Inhibitors, 3× volume:weight). The homogenates were centrifuged at 13 krpm at 4° C. for 15 minutes, a total of two times to remove the debris. The supernatants were saved in multiple aliquots in −80° C. and subsequently used for protein expression analysis on ELISA. The total protein in each sample was quantified using BCA assay. MPO, IL-10, IL-6, IL-17A and IL-22 biomarker protein expression in the distal colon samples was analyzed using commercially available rat ELISA kits.

Molecule	IL-22 level in colon	MPO level in colon	IL-17A level in colon
Ac-cyclo[[Abu]-QTWQC]-[Phe[4-(2-aminoethoxy)]]-[2-Nal]-[4-amino-4-carboxy-tetrahydropyran]-ENN-NH2 [Peptide 980]	reduced	reduced	–
CC(=O)NCCCCC(NC(=O)C1(NC(=O)C(Cc2ccc3ccccc3c2)NC(=O)C(Cc2ccc(OCCN)cc2)NC(=O)C2NC(=O)C(CCC(N)=O)NC(=O)C(Cc3c[nH]c4ccccc34)NC(=O)C(C(C)O)NC(=O)C(CC(N)=O)NC(=O)C(NC(C)=O)C(C)(C)SSC2(C)C)CCOCC1)C(=O)NC(CC(N)=O)C(=O)NC(CC(N)=O)C(N)=O (centres unmarked) [Peptide 1185, Ac-cyclo[[Pen]-NTWQ-[Pen]]-[Phe[4-(2-aminoethoxy)]]-[2-Nal]-[4-amino-4-carboxy-tetrahydropyran]-[Lys(Ac)]-NN-NH2]	did not significantly reduce	did not significantly reduce	did not significantly reduce
